Key:
Assay in all cases: relative viability (nuclei count vs DMSO), 5 days (fraction); higher = more cells survive
Halofuginone + Lapatinib = compound: O=C(C[C@H]1NCCC[C@@H]1O)Cn1cnc2cc(Br)c(Cl)cc2c1=O (racemic) [Halofuginone] + CS(=O)(=O)CCNCc1ccc(-c2ccc3ncnc(Nc4ccc(OCc5cccc(F)c5)c(Cl)c4)c3c2)o1 [Lapatinib] (partner 2 µM)
In short: (§1)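 Relative viability was taken as the ratio of nuclei in treated wells to nuclei in vehicle wells. Lung cancer cell lines in 1536-well plates received compounds by pin tool one day after seeding, either one drug alone or a fixed anchor-drug dose plus five library-drug doses (not always all listed) in √10 steps. Nuclei were counted on 4× images after 5 days of treatment, and values are medians of duplicate plates.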

[1] = compound: O=C(C[C@H]1NCCC[C@@H]1O)Cn1cnc2cc(Br)c(Cl)cc2c1=O (racemic) [Halofuginone] + CS(=O)(=O)N1CCN(Cc2cc3nc(-c4cccc5[nH]ncc45)nc(N4CCOCC4)c3s2)CC1 [Pictilisib] (partner 1 µM)
In short: as §1

[2] = compound: O=C(C[C@H]1NCCC[C@@H]1O)Cn1cnc2cc(Br)c(Cl)cc2c1=O (racemic) [Halofuginone] + Cc1cc(Nc2cc(N3CCN(C)CC3)nc(Sc3ccc(NC(=O)C4CC4)cc3)n2)n[nH]1 [Tozasertib] (partner 0.1 µM)
In short: as §1

[3] = compound: O=C(C[C@H]1NCCC[C@@H]1O)Cn1cnc2cc(Br)c(Cl)cc2c1=O (racemic) [Halofuginone] + N=C(N)NC(=N)NCCc1ccccc1 [Phenformin] (partner 250 µM)
In short: as §1

Cell Line | relative viability (Halofuginone + Lapatinib; first compound 0.001 µM) | relative viability (Halofuginone + Lapatinib; first compound 0.003162 µM) | relative viability (Halofuginone + Lapatinib; first compound 0.01 µM) | relative viability (Halofuginone + Lapatinib; first compound 0.03162 µM) | relative viability (Halofuginone + Lapatinib; first compound 0.1 µM) | relative viability ([1]; first compound 0.001 µM) | relative viability ([1]; first compound 0.003162 µM) | relative viability ([1]; first compound 0.01 µM) | relative viability ([1]; first compound 0.03162 µM) | relative viability ([1]; first compound 0.1 µM) | relative viability ([2]; first compound 0.001 µM) | relative viability ([2]; first compound 0.003162 µM) | relative viability ([2]; first compound 0.01 µM) | relative viability ([2]; first compound 0.03162 µM) | relative viability ([2]; first compound 0.1 µM) | relative viability ([3]; first compound 0.001 µM) | relative viability ([3]; first compound 0.003162 µM) | relative viability ([3]; first compound 0.01 µM) | relative viability ([3]; first compound 0.03162 µM) | relative viability ([3]; first compound 0.1 µM)
NCI-H1437 | 0.835 | 0.91 | 0.721 | 0.755 | 0.465 | 0.429 | 0.536 | 0.414 | 0.402 | 0.24 | 0.407 | 0.387 | 0.425 | 0.393 | 0.399 | 0.329 | 0.308 | 0.3 | 0.297 | 0.258
NCI-H727 | 0.704 | 0.676 | 0.949 | 0.798 | 0.508 | 0.428 | 0.444 | 0.359 | 0.421 | 0.194 | 0.706 | 0.778 | 0.578 | 0.615 | 0.33 | 0.784 | 0.577 | 0.422 | 0.628 | 0.317
PC-3 [JPC-3] | 0.466 | 0.428 | 0.436 | 0.511 | 0.461 | 0.703 | 0.78 | 0.699 | 0.772 | 0.769 | 0.863 | 0.872 | 0.863 | 0.874 | 0.856 | 0.501 | 0.453 | 0.456 | 0.473 | 0.443
SW 1573 | 1.13 | 1.29 | 1.1 | 1.1 | 1.07 | 0.451 | 0.532 | 0.435 | 0.34 | 0.18 | 0.242 | 0.192 | 0.111 | 0.129 | 0.121 | 0.411 | 0.389 | 0.378 | 0.357 | 0.205
NCI-H2228 | 1.06 | 1.02 | 0.908 | 0.657 | 0.121 | 0.355 | 0.455 | 0.398 | 0.224 | 0.095 | 0.321 | 0.324 | 0.19 | 0.133 | 0.0815 | 0.32 | 0.332 | 0.307 | 0.338 | 0.172
NCI-H1650 | 0.594 | 0.787 | 0.677 | 0.704 | 0.194 | 0.28 | 0.658 | 0.469 | 0.495 | 0.136 | 0.559 | 0.384 | 0.357 | 0.29 | 0.192 | 0.495 | 0.467 | 0.413 | 0.442 | 0.188
NCI-H358 | 0.56 | 0.432 | 0.376 | 0.282 | 0.232 | 0.364 | 0.351 | 0.359 | 0.245 | 0.196 | 0.107 | 0.0894 | 0.095 | 0.0812 | 0.0809 | 0.303 | 0.312 | 0.261 | 0.189 | 0.079
COR-L 105 | 0.438 | 0.39 | 0.317 | 0.374 | 0.285 | 0.437 | 0.432 | 0.412 | 0.338 | 0.31 | 0.337 | 0.288 | 0.385 | 0.329 | 0.346 | 0.492 | 0.467 | 0.488 | 0.516 | 0.381
LU99A | 0.985 | 0.965 | 0.892 | 0.934 | 0.607 | 0.405 | 0.361 | 0.294 | 0.308 | 0.242 | 0.277 | 0.295 | 0.271 | 0.296 | 0.36 | 0.945 | 1.08 | 0.841 | 0.764 | 0.735
H3255 | 0.272 | 0.255 | 0.241 | 0.259 | 0.235 | 0.472 | 0.482 | 0.437 | 0.394 | 0.447 | 0.709 | 0.524 | 0.723 | 0.67 | 0.618 | 0.399 | 0.372 | 0.293 | 0.401 | 0.369
NCI-H1734 | 1.12 | 1.02 | 1.05 | 0.986 | 0.812 | 0.46 | 0.492 | 0.403 | 0.449 | 0.327 | 0.226 | 0.267 | 0.278 | 0.291 | 0.251 | 0.369 | 0.436 | 0.427 | 0.408 | 0.369
NCI-H650 | 1.12 | 0.48 | 1 | 0.775 | 0.515 | 0.956 | 0.953 | 1.02 | 0.801 | 0.566 | 0.912 | 0.772 | 0.709 | 0.67 | 0.426 | 0.507 | 0.501 | 0.437 | 0.424 | 0.374
NCI-H1915 | 0.977 | 0.983 | 0.942 | 0.96 | 0.984 | 0.917 | 1.04 | 0.915 | 0.861 | 0.882 | 0.463 | 0.462 | 0.416 | 0.448 | 0.299 | 0.361 | 0.386 | 0.366 | 0.339 | 0.355
NCI-H2009 | 1.06 | 1.01 | 0.887 | 0.83 | 0.409 | 1.07 | 0.878 | 0.758 | 0.689 | 0.26 | 0.897 | 0.754 | 0.746 | 0.659 | 0.366 | 0.485 | 0.52 | 0.473 | 0.449 | 0.271
NCI-H1651 | 0.939 | 0.908 | 0.763 | 0.768 | 0.34 | 0.677 | 0.586 | 0.548 | 0.522 | 0.243 | 1.03 | 0.773 | 0.702 | 0.471 | 0.352 | 0.377 | 0.34 | 0.333 | 0.35 | 0.276
HOP-62 | 0.983 | 1.09 | 0.936 | 0.791 | 0.948 | 0.661 | 0.781 | 0.766 | 0.53 | 0.239 | 0.445 | 0.406 | 0.386 | 0.32 | 0.231 | 0.663 | 0.707 | 0.676 | 0.634 | 0.603
